Each compound was assayed against T1, human CXCR3 (N-delta 4) (Homo sapiens, UniProt P49682) (assay: Human CXCR3 (N-delta 4) scintillation proximity assay (SPA), [125I] IP-10 binding). Settings: IC50 rating; Ba/F3-hCXCR3 (N-delta 4) membranes, 25 pM [125I] IP-10.
T1 construct: CD8 leader; Flag tag; expressed in transfected cells; membranes used
T1 sequence (P49682 5-368 limits assumed): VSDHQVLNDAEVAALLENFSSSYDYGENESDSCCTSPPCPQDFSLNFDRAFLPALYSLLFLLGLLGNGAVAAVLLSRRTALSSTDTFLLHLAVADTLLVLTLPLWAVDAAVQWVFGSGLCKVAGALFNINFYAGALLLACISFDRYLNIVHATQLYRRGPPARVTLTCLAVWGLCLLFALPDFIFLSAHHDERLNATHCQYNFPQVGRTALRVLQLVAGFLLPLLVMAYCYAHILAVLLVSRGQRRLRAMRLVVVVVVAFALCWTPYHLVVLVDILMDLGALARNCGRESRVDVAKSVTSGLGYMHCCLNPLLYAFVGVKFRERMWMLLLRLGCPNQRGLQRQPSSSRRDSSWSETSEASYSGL
Outline: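 Membranes from mouse Ba/F3 pro-B cells stably expressing Flag-tagged human CXCR3 (N-delta 4) were coupled to SPA beads. IP-10 was added together with titrated compounds to start the reaction, and bound radioligand was read by scintillation proximity.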
Work on `CC[C@H]1CN(c2ncc(C(=O)NC(C)C)cc2Cl)CCN1C1CCN(C(=O)c2ccc(C#N)cc2)CC1` [compound 287] yielded an IC50 of 0.025 to 0.1 µM.
Work on `O=C(NCc1ccc(Cl)cc1)c1cnc(N2CCN(C3CCN(Cc4ccc(Cl)cc4)CC3)CC2)c(Cl)c1` [compound 288] yielded an IC50 of 0.025 to 0.1 µM.
In the case of `O=C(NCc1ccc(Cl)c(Cl)c1)c1cnc(N2CCN(C3CCN(Cc4ccc(Br)cc4)CC3)CC2)c(Cl)c1` [compound 289], the IC50 is reported as 0.025 to 0.1 µM.
Compound `O=C(NCCOc1ccccc1)c1cnc(N2CCN(C3CCN(Cc4ccc(Br)cc4)CC3)CC2)c(Br)c1` [compound 290] has an IC50 of 0.025 to 0.1 µM.
`C[C@H]1CN(c2ncc(C(=O)NCc3ccc(F)c(F)c3)cc2Cl)CCN1C1CCN(C(=O)c2ccc(C#N)cc2)CC1` [compound 291] gave an IC50 of 0.025 to 0.1 µM.
Work on `CNC(=O)c1cnc(N2CCN(C3CCN(C(=N)c4ccc(Cl)cc4)CC3)[C@@H](C)C2)c(Cl)c1` [compound 292] yielded an IC50 of 0.025 to 0.1 µM.
Work on `O=C(NCc1ccc(Br)cc1)c1cnc(N2CCN(C3CCN(Cc4ccc(Cl)c(F)c4)CC3)CC2)c(Cl)c1` [compound 293] yielded an IC50 of 0.025 to 0.1 µM.
`CCNC(=O)c1cnc(N2CCN(C3CCN([C@@H](C)c4ccc(Cl)cc4)CC3)[C@@H](C)C2)c(Cl)c1` [compound 294] was tested, and the IC50 was 0.025 to 0.1 µM.
For `CC[C@H]1CN(c2ncc(C(=O)NC)cc2Cl)CCN1C1CCN(Cc2ccccc2F)CC1` [compound 295], the IC50 was 0.025 to 0.1 µM.
`O=C(NCc1cccc(F)c1)c1cnc(N2CCN(C3CCN(Cc4ccc(Cl)c(F)c4)CC3)CC2)c(Cl)c1` [compound 296] was tested, and the IC50 was 0.025 to 0.1 µM.
`O=C(NCc1ccc(F)cc1)c1cnc(N2CCN(C3CCN(Cc4ccc(Cl)cc4)CC3)CC2)c(Cl)c1` [compound 297] was tested, and the IC50 was 0.025 to 0.1 µM.
Compound `N#Cc1ccc(C(=O)N2CCC(N3CCN(c4ncc(C(=O)NCc5ccc(F)c(F)c5)cc4Br)CC3)CC2)cc1` [compound 298] has an IC50 of 0.025 to 0.1 µM.
With `CNC(=O)c1cnc(N2CCN(C3CCN(Cc4ccc(F)cc4Cl)CC3)[C@@H](C)C2)c(Cl)c1` [compound 299] the IC50 was 0.025 to 0.1 µM.
`C[C@@H]1CN(c2ncc(C(=O)NCC3CCCCC3)cc2Cl)CCN1C1CCN(Cc2ccc(C#N)cc2)CC1` [compound 300] gave an IC50 of 0.025 to 0.1 µM.
With `CNC(=O)c1cnc(N2CCN(C3CCN(Cc4ccc(C(F)(F)F)cc4)CC3)[C@@H](C)C2)c(Cl)c1` [compound 301] the IC50 was 0.025 to 0.1 µM.
`CNC(=O)c1cnc(N2CCN(C3CCN(Cc4ccc(Cl)cc4)CC3C)CC2)c(Cl)c1` (centres unmarked) [compound 302] was tested, and the IC50 was 0.025 to 0.1 µM.
For `CC[C@H]1CN(c2ncc(C(=O)NC)cc2Cl)CCN1C1CCN(C(=O)c2ccc(C#N)cc2)CC1` [compound 303], the IC50 was 0.025 to 0.1 µM.
`COc1ccc(CN2CCC(N3CCN(c4ncc(C(=O)NCCOc5ccccc5)cc4Br)CC3)CC2)cc1` [compound 304] was tested, and the IC50 was 0.025 to 0.1 µM.
For `O=C(NCc1ccc(C(F)(F)F)cc1)c1cnc(N2CCN(C3CCN(Cc4ccc(Cl)cc4)CC3)CC2)c(Br)c1` [compound 305], the IC50 was 0.025 to 0.1 µM.
`CC[C@H]1CN(c2ncc(C(=O)NCCN)cc2Cl)CCN1C1CCN(Cc2ccc(Cl)cc2F)CC1` [compound 306] showed an IC50 of 0.025 to 0.1 µM.
With `C[C@H]1CN(c2ncc(C(=O)NCc3ccc(F)c(F)c3)cc2Cl)CCN1C1CCN(C(=O)c2ccc(Cl)cc2)CC1` [compound 307] the IC50 was 0.025 to 0.1 µM.
In the case of `O=C(NCc1ccc(Br)cc1)c1cnc(N2CCN(C3CCN(Cc4ccc(Br)cc4)CC3)CC2)c(Cl)c1` [compound 308], the IC50 is reported as 0.025 to 0.1 µM.
For `CCNC(=O)c1cnc(N2CCN(C3CCN(C(=O)c4ccc(Cl)cc4)CC3)C(CC(F)(F)F)C2)c(Cl)c1` (centres unmarked) [compound 309], the IC50 was 0.025 to 0.1 µM.
For `Cc1cc(NC(=O)c2cnc(N3CCN(C4CCN(Cc5ccc(Cl)cc5)CC4)[C@@H](C)C3)c(Cl)c2)no1` [compound 310], the IC50 was 0.025 to 0.1 µM.
Compound `C[C@H]1CN(c2ncc(C(=O)NCc3ccc(F)c(F)c3)cc2Cl)CCN1C1CCN(CCOc2ccc(Cl)cc2)CC1` [compound 311] has an IC50 of 0.025 to 0.1 µM.
Compound `C[C@H]1CN(c2ncc(C(=O)Nc3cc[nH]n3)cc2Cl)CCN1C1CCN(Cc2ccc(Cl)cc2)CC1` [compound 312] has an IC50 of 0.025 to 0.1 µM.
Compound `N#Cc1ccc(CN2CCC(N3CCN(c4ncc(C(=O)NCCOc5ccccc5)cc4Br)CC3)CC2)cc1` [compound 314] has an IC50 of 0.025 to 0.1 µM.
`CC[C@H]1CN(c2cc(N)c(C(N)=O)cc2Cl)CCN1C1CCN(Cc2ccc(Cl)cc2F)CC1` [compound 315] showed an IC50 of 0.025 to 0.1 µM.
Work on `CC[C@H]1CN(c2ncc(C(=O)NC)c(N)c2Cl)CCN1C1CCN(Cc2ccc(Cl)cc2F)CC1` [compound 316] yielded an IC50 of 0.025 to 0.1 µM.
For `N#Cc1ccc(CN2CCC(N3CCN(c4ncc(C(=O)NCc5ccc(Cl)c(Cl)c5)cc4Cl)CC3)CC2)cc1` [compound 317], the IC50 was 0.025 to 0.1 µM.
Work on `CC[C@H]1CN(c2ncc(C(=O)NC3CC3)cc2Cl)CCN1C1CCN(Cc2ccc(F)cc2C(F)(F)F)CC1` [compound 318] yielded an IC50 of 0.025 to 0.1 µM.
`C[C@H]1CN(c2ncc(C(=O)NCc3ccc(Cl)c(Cl)c3)cc2Cl)CCN1C1CCN(C(=O)c2ccc(C#N)cc2)CC1` [compound 319] showed an IC50 of 0.025 to 0.1 µM.
With `CNC(=O)c1cnc(N2CCN(C3CCN(Cc4ccc(C)cc4)CC3)[C@@H](C)C2)c(Cl)c1` [compound 320] the IC50 was 0.025 to 0.1 µM.
`N#Cc1ccc(CN2CCC(N3CCN(c4ncc(C(=O)NCc5ccc(F)cc5)cc4Cl)CC3)CC2)cc1` [compound 321] showed an IC50 of 0.025 to 0.1 µM.
`COc1ccc(CN2CCC(N3CCN(c4ncc(C(=O)NCc5ccc(C(F)(F)F)cc5)cc4Br)CC3)CC2)cc1` [compound 322] gave an IC50 of 0.025 to 0.1 µM.
`O=C(NCCOc1ccccc1)c1cnc(N2CCN(C3CCN(Cc4ccc(Cl)cc4)CC3)CC2)c(Cl)c1` [compound 323] was tested, and the IC50 was 0.025 to 0.1 µM.
Compound `N#Cc1ccc(CN2CCC(N3CCN(c4ncc(C(=O)NCc5ccc(C(F)(F)F)cc5)cc4Br)CC3)CC2)cc1` [compound 324] has an IC50 of 0.025 to 0.1 µM.
With `O=C(NCc1ccc(C(F)(F)F)cc1)c1cnc(N2CCN(C3CCN(Cc4ccc(Br)cc4)CC3)CC2)c(Br)c1` [compound 325] the IC50 was greater than 0.1 µM.
`CCNC(=O)c1cnc(N2CCN(C3CCN(C(C)(C)c4ccc(Cl)cc4)CC3)[C@@H](C)C2)c(Cl)c1` [compound 326] gave an IC50 greater than 0.1 µM.
For `C[C@H]1CN(c2ncc(C(=O)NCc3ccc(F)c(F)c3)cc2Cl)CCN1C1CCN(CCC(=O)c2ccc(Cl)cc2)CC1` [compound 327], the IC50 was greater than 0.1 µM.
With `CNC(=O)c1cnc(N2CCN(C3CCN([C@@H](C)c4ccc(Cl)cc4)CC3)[C@@H](C)C2)c(Cl)c1` [compound 328] the IC50 was greater than 0.1 µM.
For `N#Cc1ccc(C(=O)N2CCC(N3CCN(c4ncc(C(=O)NCCOc5ccccc5)cc4Br)CC3)CC2)cc1` [compound 329], the IC50 was greater than 0.1 µM.
`CCNC(=O)c1cnc(N2CCN(C3CCN([C@H](CC)c4ccc(Cl)cc4)CC3)[C@@H](C)C2)c(Cl)c1` [compound 330] gave an IC50 greater than 0.1 µM.
`COc1ccc(CN2CCC(N3CCN(c4ncc(C(=O)NCCOc5ccccc5)cc4Cl)CC3)CC2)cc1` [compound 331] showed an IC50 greater than 0.1 µM.
In the case of `CC[C@H]1CN(c2ncc(C(N)=O)cc2Cl)CCN1C1CCN(C(=O)c2ccc(Cl)cc2)CC1` [compound 332], the IC50 is reported as greater than 0.1 µM.
Compound `CNC(=O)c1cnc(N2CCN(C3CCN(Cc4ccc(Cl)nc4)CC3)[C@@H](C)C2)c(Cl)c1` [compound 333] has an IC50 greater than 0.1 µM.
In the case of `CNC(=O)c1cnc(N2CCN(C3CCN(Cc4cccc(C)c4)CC3)[C@@H](C)C2)c(Cl)c1` [compound 334], the IC50 is reported as greater than 0.1 µM.
In the case of `C[C@H]1CN(c2ncc(C(=O)NCC3CCCCC3)cc2Cl)CCN1C1CCN(C(=O)c2ccc(C#N)cc2)CC1` [compound 335], the IC50 is reported as greater than 0.1 µM.
`N#Cc1ccc(CN2CCC(N3CCN(c4ncc(C(=O)NCc5ccc(C(F)(F)F)cc5)cc4Cl)CC3)CC2)cc1` [compound 336] gave an IC50 greater than 0.1 µM.
In the case of `CNC(=O)c1cnc(N2CCN(C3CCN(C(=O)c4ccc(Cl)cc4)CC3)[C@@H](C)C2)c(Cl)c1` [compound 337], the IC50 is reported as greater than 0.1 µM.

From patent US7776862B2, “Pyridyl and phenyl substituted piperazine-piperidines with CXCR3 antagonist activity” (Schering Corporation, priority 2005, dated 2010)
